Patent US20110144125A1, “Anti-Arrhythmia Agents, Methods of Their Use, Methods of Their Identification and Kits Therefore” (THE UAB RESEARCH FOUNDATION, priority 2008, published 2011)
Structures can show the parent of a compound that is named as a salt.

Key:
[1] = system: rat left atrial appendage; test: 2-APB-induced spontaneous mechanical activity (SMA/SMEs) in isolated superfused rat left atria / left atrial appendage; settings: 0.1 Hz paced, 15 μM 2-APB, titration after appearance of SMA
Experimental: (§1) Left atria were isolated from male Sprague-Dawley rats (325 to 400 g) under IP pentobarbital anesthesia (0.1 g/kg). Isolated left atria were superfused at 30° C. in Krebs-Henseleit (KH) buffer of the following mM composition: NaCl, 118; NaHCO3, 27; KCl, 4.8; MgSO4, 1.2; KH2PO4, 1.0; CaCl2, 1.8; and glucose, 11.1. Nearly isometric left atrial forces of contraction were measured as described.
Isolated superfused left atria were paced at 3 Hz. 2-APB was added to atrial superfusates from 0.015 or 0.15M DMSO stock solutions to achieve concentrations of 0, 2, 7.5, 15, or 22 μM (n=5 to 10 atria per concentration). Changes in atrial mechanical force were recorded during a subsequent 15 min superfusion.
Two groups of 5 to 6, 3 Hz paced atria were superfused in KH and exposed to 0 or 15 μM 2-APB for 10 min. The pacing stimulus was interrupted for 5 min and the number of spontaneous mechanical events (SMEs), defined as increases in mechanical force occurring in the absence of pacing, were measured as was the postrest potentiation response (PRP).
To determine whether diastolic interval affected the interaction between 2-APB and left atria, atrial pacing was decreased to 0.1 Hz, and 0, 7.5, or 22 μM 2-APB was added to the superfusate (n=6-8 per group). Superfusions continued for 15 min, and changes in atrial mechanical function were observed.
To establish whether SMA was reversible, atria (n=7) were paced at 0.1 Hz, exposed to 15 μM 2-APB for 10 min, and washed with KH. The effect of removing 2-APB on atrial mechanical function was recorded.
To test whether an anion transport inhibitor affected SMA, atria (n=7) were paced at 0.1 Hz in KH and exposed to 15 μM 2-APB. Following the appearance of SMA, they were titrated with 100 to 400 μM DIDS for 3 to 5 min at each concentration. Whether SMA occurred at the end of each titration period was recorded.
(§2) Left atria (n=10 per group) were paced at 0.1 Hz and treated with (i) 20 μM 2-APB for 10 min, (ii) with 30 nM isoproterenol for 5 min followed by 20 μM 2-APB for 10 min, and (iii) with 3 μM forskolin for 5 min followed by 20 μM 2-APB for 10 min.
The appendages then were titrated with increasing concentrations of 2-APB, and SMA was measured and recorded.
To determine the anti-arrhythmic activity of gossypol, isolated rat left atrial appendage and right ventricular muscle strips were used as model systems, as described above. Heart muscle was exposed to 20 μM 2-APB for 10 min to induce SMA, and rates of SMA were recorded as a percentage of initial SMA. The muscles then were titrated with up to 5 increasing concentrations of gossypol. Rates of SMA were recorded ˜10 min after the addition of concentration of the polyphenol.
To determine whether EGCG can prevent arrhythmia, rat left atrial appendages (n=9) were exposed to 20 μM 2-APB and rates of SMA were recorded. Groups of muscles (n=6 per) were pre-treated with 30 μM EGCG for 10 min following which they were exposed to 2-APB. Rates of SMA were recorded 10 min later.
To determine whether EGCG is effective to reverse arrhythmia, isolated rat left atrial appendage and right ventricular muscle strips were used as model systems, as described above. Rat left atrial appendages were exposed to 20 μM 2-APB for 10 min to induce SMA, and rates of SMA were recorded as a percentage of initial SMA. The left atrial appendages then were titrated with up to 5 increasing concentrations of the following polyphenols: EGCG, gossypol, resveratrol, and quercetin. Rates of SMA were recorded ˜10 min after the addition of concentration of the polyphenol.
To determine whether EGC can prevent arrhythmia, left atrial appendages (n=9) were exposed to 20 μM 2-APB and rates of SMA were recorded. Groups of appendages (n=6 per) were pre-treated with 30 μM EGC for 10 min following which they were exposed to 2-APB.

[2] = system: rat left atria; test: Left atrial force of contraction / post-rest potentiation maximum force
Experimental: as §1
The initial potentiated beat following prolonged rest (i.e., the PRP maximum force of contraction) reflects activator calcium available for SR release. The PRP response was used to obtain an indirect measure of left atrial SR calcium under our conditions.
Left atria (n=6) were superfused in KH, paced at 0.1 Hz, and subjected to PRP. Superfusion proceeded for another 35 min, and a second PRP was performed. These 2 forces were compared to assure the mechanical stability of our preparations.
One group (n=8) was superfused in KH, paced at 0.1 Hz, and their maximum force of contraction was measured. These atria were washed with KH containing 82 mM sodium, and a second PRP was performed 23 min later.
A second group (n=8) was paced at 0.1 Hz in KH and subjected to PRP. They were exposed to 22 μM 2-APB and, after the appearance of SMA, were washed with KH containing 22 μM 2-APB and 82 mM sodium. Superfusion continued for 23 min and a second PRP was performed.
Control 0.1 Hz paced atria (n=8) were subjected to PRP and exposed to 400 μM DIDS, and a second PRP was performed 23 min later.
A group of atria (n=8) were paced at 0.1 Hz in KH and subjected to PRP. They were exposed to 22 μM 2-APB, 400 μM DIDS was added to the superfusate after the appearance of SMA, and a second PRP was performed 23 min later.
(§3) Left atria (n=8 per group) were paced at 3 Hz and (i) titrated with 0 to 30 nM isoproterenol (Ahlquist, 1970) or (ii) exposed to 3 μM forskolin (Laurenza et al., 1980). Left atrial force and frequency of contraction, the time to peak tension and relaxation times were recorded after a 3-5 min exposure to forskolin or to any concentration of isoproterenol. The 3 Hz pacing stimulus was interrupted at the end of these protocols to measure SMEs.
(§4) Left atria (n=6 per group) were paced at 3 Hz, titrated with 0 to 300 nM (−)BayK 8644 ([…]-1,4-Dihydro-2,6-dimethyl-5-nitro-4-[2-(trifluormethyl)phenyl]-3-pyridinecarboxylic acid methyl ester; Franckowiak et al. 1985) or FPL-64176 ((2,5-Dimethyl-4-[2-(phenylmethyl)benzoyl]-111-pyrrole-3-carboxylic acid methyl ester; Zheng et al., 1991) and their mechanical function and rates of SMA were recorded after a 5 min exposure to any concentration of slow calcium channel activator.
(§5) To test whether ryanodine receptor calcium leak produces SMA, left atria (n=6 per group) were paced at 0.1 Hz, treated with 0 or 300 nM BayK 8644 for 5 min, and then exposed to 600 nM ryanodine (Sutko et al., 1997). Atrial mechanical function and rates of SMA were recorded 20 min after exposure to ryanodine.
(§6) Left atria (n=7) were paced at 3 Hz, treated with 120 μM ouabain (Illanes and Marshall, 1964), and any change in mechanical function was recorded at a new steady state, ˜10 min later. These atria were exposed to 20 μM 2-APB and their mechanical function and rates of SMA were recorded 10 min later.
To test whether zatebradine affects left atrial force of contraction, two groups of left atria (n=9 per group) were paced at 3 Hz and treated with 300 nM BayK 8644. Five minutes later one group was incubated with six increasing concentrations of zatebradine (10-100 μM) for 3-5 min at each concentration, and forces of contraction were recorded. A second group was treated with BayK 8644 but not zatebradine, and forces of contraction were recorded at corresponding times.

[3] = system: rat left atria; test: Spontaneous tachycardic activity (STA) in isolated rat left atria exposed to 2-APB under increased calcium load; settings: for effect of If inhibitor on left atrial STA: BayK 8644 and 2-APB, zatebradine 70 μM, ZD-7288 titration to 100 μM
Experimental: (§7) Male Sprague-Dawley rats (325-400 g) were anesthetized with intra-peritoneal pentobarbital (0.1 g/kg). Their right and left atria were isolated, superfused at 30° C. in Krebs-Henseleit buffer, and nearly isometric forces of contraction were measured from these muscles (Wolkowicz et al., 2002). 2-APB was prepared as a 150 mM dimethyl sulfoxide stock.
as §3, §2
Left atrial contraction and relaxation times were recorded at these five times, the pacing stimulus was stopped and rates of SMA were recorded. To determine whether initial pacing rate affects left atrial response to 2-APB and isoproterenol, left atria (n=5-7 per group) were paced at 3 Hz and (i) remained untreated for 15 min, (ii) were treated with 20 μM 2-APB alone for 10 min, or (ii) were treated with 30 nM isoproterenol for 5 min followed by 20 μM 2-APB for 10 min. Atrial mechanical function was measured at these four times; the pacing stimulus then was stopped and rates of SMA were recorded.
as §4
Left atria (n=8 per group) were paced at 0.1 Hz, exposed to 300 nM BayK 8644 or FPL-64176 for 5 min followed by 20 μM 2-APB for 10 min. Atrial mechanical function was recorded at this time; the pacing stimulus then was stopped and rates of SMA were recorded.
as §5
Rates of SMA were measured 5 min later.
as §6
3 Hz-paced left atria (n=9 per group) were superfused (i) in Krebs-Henseleit alone or (ii) they were treated with 20 μM 2-APB for 10 min, (iii) with 300 nM BayK 8644 for 10 min and with 20 μM 2-APB for 10 min, or (iv) they were treated with 300 nM BayK 8644 and 20 μM 2-APB for 10 min, then with 70 μM zatebradine (3-[3-[[2-(3,4-Dimethoxyphenyl)ethyl]methylamino] propyl]-1,3,4,5-tetrahydro-7,8,-dimethoxy-2H-3-benzazepin-2-one hydrochloride) for 10 min (Baruscotti et al., 2005). Pacing was interrupted at these times and rates of SMA were recorded.

[4] = system: rat right atria; test: Right atrial spontaneous (pacemaker-driven) contraction frequency
Experimental: as §7
Left atria (n=9) were paced at 0.1 Hz, treated with 300 nM BayK 8644 for 5 min, then with 20 μM 2-APB for 10 min, and the pacing stimulus was stopped. These preparations then were incubated with six increasing concentrations of zatebradine (10-100 μM) for 3-5 min at each concentration, and rates of SMA were recorded. Untreated right atria (n=9) also were titrated with zatebradine and its effect on contraction frequency was recorded.
To test whether zatebradine affects the SMA occurring in the presence of 2-APB and isoproterenol, left atria (n=7) were paced at 0.1 Hz, treated with 30 nM isoproterenol for 5 min, then with 20 μM 2-APB for 10 min, and the pacing stimulus was stopped. Rates of SMA were recorded, these left atria were exposed to 70 μM zatebradine for 10 min, and rates of SMA were recorded again. A group of right atria (n=7) also were exposed to 30 nM isoproterenol for 5 min and then to 70 μM zatebradine for 10 min. Right atrial contraction frequency was recorded at these two times.
To test whether ZD-7288 (4-Ethylphenyl amino-1,2-dimethyl-6-methylaminopyridinium chloride), an If inhibitor structurally unrelated to zatebradine (Baruscotti et al., 2005; Sanders et al., 2006) affects the SMA occurring in the presence of 2-APB and BayK 8644, rat left atria (n=7) were treated with 300 nM BayK 8644 for 5 min, then with 20 μM 2-APB for 10 min, and the rates of SMA were recorded. These atria then were incubated with six increasing concentrations of ZD-7288 (10-100 μM) for 3-5 min at each concentration, and the rates of SMA were recorded. Right atria (n=7) were titrated similarly with ZD-7288 (0-100 μM) and the change in their contraction frequency was recorded.

SMILES | DIDS concentration that reversed SMA completely [1] [µM] | maximum forces of left atrial contraction, beginning vs end of 35-min superfusion ([2]; 400 μM DIDS alone, no 2-APB) | effect of If inhibitor on left atrial STA [3] | effect on right atrial contraction frequency ([4]; ZD-7288 titration 0-100 μM) | IC50 ([3]; Rattus norvegicus, intact left atria exposed to BayK 8644 and 2-APB, read-out: IC50 for decrease of STA) [µM] | rate of appendage STA ([3]; isoproterenol+2-APB+70 μM zatebradine) [contractions/min] | IC50 ([4]; Rattus norvegicus, untreated right atria titrated with zatebradine, read-out: IC50 for decrease of right atrial contraction frequency) [µM] | right atrial contraction frequency ([4]; isoproterenol+70 μM zatebradine) [contractions/min] | maximum decrease of right atrial contraction frequency ([4]; zatebradine titration) [%] | left atrial force of contraction ([2]; 3 Hz paced, 300 nM BayK 8644, titrated with 10-100 μM zatebradine)
O=S(=O)(O)c1cc(N=C=S)ccc1C=Cc1ccc(N=C=S)cc1S(=O)(=O)O [DIDS, 4,4′-diisothiocyanatostilbene-2,2′-disulfonic acid] | > 300 | not different |  |  |  |  |  |  |  | 
CCN(c1ccccc1)c1cc(NC)[n+](C)c(C)n1.[Cl-] [ZD-7288] |  |  | decreases left atrial STA | decreases right atrial contraction frequency less robustly than zatebradine |  |  |  |  |  | 
COc1ccc(CCN(C)CCCN2CCc3cc(OC)c(OC)cc3CC2=O)cc1OC [zatebradine, 3-[3-[[2-(3,4-Dimethoxyphenyl)ethyl]methylamino]propyl]-1,3,4,5-tetrahydro-7,8,-dimethoxy-2H-3-benzazepin-2-one hydrochloride] |  |  | significantly decreases |  | 58 ± 5 | 110±24.5 | 12 ± 1.1 | 212±9.7 | ~50 | 95±3.8 % of initial force
